Earlier results in US5994374A, “Substituted 1-indolylpropyl-4-benzyl-tetrahydropyridine derivatives” (Merck Sharp & Dohme Ltd., priority 1995, dated 1999).

System: human 5-HT1Dα and 5-HT1Dβ receptor subtypes
Settings: cf. WO-A-91/17174, Table 1

For CNS(=O)(=O)Cc1ccc2[nH]cc(CCN(C)C)c2c1 [sumatriptan], the “discrimination between the human 5-HT1Dα and 5-HT1Dβ receptor subtypes” value is listed as “barely discriminates”.
